Test results reported in patent US12258327B2, “5-membered heteroaryl-containing aminopyridine compounds as EGFR inhibitors” (YUHAN CORPORATION, priority 2021, dated 2025).

Experiments:
EGFR del19/T790M/C797S = EGFR del19/T790M/C797S (Homo sapiens, UniProt P00533, C797S/DEL746-750/T790M); assay: Biochemical EGFR kinase assay (Lance Ultra TR-FRET), triple mutant del19/T790M/C797S; settings: Km ATP; read-out: IC50 del19/T790M/C797S (nM) Km ATP
Method in brief: (§1)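 In this biochemical assay, phosphorylation after a one-hour room-temperature reaction was detected with europium-labelled anti-phosphopeptide antibody at 2 nM final concentration.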

EGFR L858R/T790M/C797S = EGFR L858R/T790M/C797S (Homo sapiens, UniProt P00533, C797S/L858R/T790M); assay: Biochemical EGFR kinase assay (Lance Ultra TR-FRET), triple mutant L858R/T790M/C797S; settings: Km ATP; read-out: IC50 L858R/T790M/C797S (nM) Km ATP
Method in brief: as §1

EGFR del19/C797S = EGFR del19/C797S (Homo sapiens, UniProt P00533, C797S/DEL746-750); assay: Biochemical EGFR kinase assay (Lance Ultra TR-FRET), double mutant del19/C797S; settings: Km ATP; read-out: IC50 del19/C797S (nM) Km ATP
Method in brief: as §1

EGFR L858R/C797S = EGFR L858R/C797S (Homo sapiens, UniProt P00533, C797S/L858R); assay: Biochemical EGFR kinase assay (Lance Ultra TR-FRET), double mutant L858R/C797S; settings: Km ATP; read-out: IC50 L858R/C797S (nM) Km ATP
Method in brief: as §1

EGFR wildtype (WT) = EGFR wildtype (WT) (Homo sapiens, UniProt P00533); assay: Biochemical EGFR kinase assay (Lance Ultra TR-FRET), wildtype; settings: Km ATP; read-out: IC50 WT (nM) Km ATP
Method in brief: as §1

EGFR wildtype (WT), sequence (P00533 25-1210): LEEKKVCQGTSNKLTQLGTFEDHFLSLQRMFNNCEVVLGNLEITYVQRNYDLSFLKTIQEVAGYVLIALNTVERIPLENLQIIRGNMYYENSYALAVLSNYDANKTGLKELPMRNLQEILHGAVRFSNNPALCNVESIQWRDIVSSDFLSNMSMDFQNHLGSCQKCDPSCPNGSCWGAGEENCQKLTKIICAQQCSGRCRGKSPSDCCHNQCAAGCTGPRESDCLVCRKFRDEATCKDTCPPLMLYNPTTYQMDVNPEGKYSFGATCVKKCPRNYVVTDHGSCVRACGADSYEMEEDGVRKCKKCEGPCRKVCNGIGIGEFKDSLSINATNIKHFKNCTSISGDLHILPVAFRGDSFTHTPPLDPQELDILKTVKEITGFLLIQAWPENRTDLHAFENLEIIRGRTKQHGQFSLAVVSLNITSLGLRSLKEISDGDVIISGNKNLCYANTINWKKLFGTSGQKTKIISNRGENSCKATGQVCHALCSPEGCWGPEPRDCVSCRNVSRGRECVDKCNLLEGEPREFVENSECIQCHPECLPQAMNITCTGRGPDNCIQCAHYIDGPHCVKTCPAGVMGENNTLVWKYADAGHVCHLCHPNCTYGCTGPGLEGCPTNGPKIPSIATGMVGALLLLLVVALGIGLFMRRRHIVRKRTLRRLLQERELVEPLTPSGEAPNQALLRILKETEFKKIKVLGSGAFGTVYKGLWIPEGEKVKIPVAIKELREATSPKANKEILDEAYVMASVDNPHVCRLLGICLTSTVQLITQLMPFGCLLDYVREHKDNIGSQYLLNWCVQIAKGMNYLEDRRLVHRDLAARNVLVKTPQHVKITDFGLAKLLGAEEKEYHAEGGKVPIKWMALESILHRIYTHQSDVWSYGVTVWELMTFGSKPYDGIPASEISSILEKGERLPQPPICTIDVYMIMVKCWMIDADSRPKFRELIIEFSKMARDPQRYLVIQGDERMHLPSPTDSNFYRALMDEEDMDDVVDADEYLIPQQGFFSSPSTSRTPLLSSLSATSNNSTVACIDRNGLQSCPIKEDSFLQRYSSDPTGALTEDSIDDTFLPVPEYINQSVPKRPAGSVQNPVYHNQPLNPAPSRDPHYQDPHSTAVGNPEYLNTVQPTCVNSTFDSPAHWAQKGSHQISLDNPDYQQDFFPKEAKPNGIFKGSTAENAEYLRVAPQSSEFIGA
EGFR L858R/C797S, sequence (P00533 25-1210 C797S/L858R): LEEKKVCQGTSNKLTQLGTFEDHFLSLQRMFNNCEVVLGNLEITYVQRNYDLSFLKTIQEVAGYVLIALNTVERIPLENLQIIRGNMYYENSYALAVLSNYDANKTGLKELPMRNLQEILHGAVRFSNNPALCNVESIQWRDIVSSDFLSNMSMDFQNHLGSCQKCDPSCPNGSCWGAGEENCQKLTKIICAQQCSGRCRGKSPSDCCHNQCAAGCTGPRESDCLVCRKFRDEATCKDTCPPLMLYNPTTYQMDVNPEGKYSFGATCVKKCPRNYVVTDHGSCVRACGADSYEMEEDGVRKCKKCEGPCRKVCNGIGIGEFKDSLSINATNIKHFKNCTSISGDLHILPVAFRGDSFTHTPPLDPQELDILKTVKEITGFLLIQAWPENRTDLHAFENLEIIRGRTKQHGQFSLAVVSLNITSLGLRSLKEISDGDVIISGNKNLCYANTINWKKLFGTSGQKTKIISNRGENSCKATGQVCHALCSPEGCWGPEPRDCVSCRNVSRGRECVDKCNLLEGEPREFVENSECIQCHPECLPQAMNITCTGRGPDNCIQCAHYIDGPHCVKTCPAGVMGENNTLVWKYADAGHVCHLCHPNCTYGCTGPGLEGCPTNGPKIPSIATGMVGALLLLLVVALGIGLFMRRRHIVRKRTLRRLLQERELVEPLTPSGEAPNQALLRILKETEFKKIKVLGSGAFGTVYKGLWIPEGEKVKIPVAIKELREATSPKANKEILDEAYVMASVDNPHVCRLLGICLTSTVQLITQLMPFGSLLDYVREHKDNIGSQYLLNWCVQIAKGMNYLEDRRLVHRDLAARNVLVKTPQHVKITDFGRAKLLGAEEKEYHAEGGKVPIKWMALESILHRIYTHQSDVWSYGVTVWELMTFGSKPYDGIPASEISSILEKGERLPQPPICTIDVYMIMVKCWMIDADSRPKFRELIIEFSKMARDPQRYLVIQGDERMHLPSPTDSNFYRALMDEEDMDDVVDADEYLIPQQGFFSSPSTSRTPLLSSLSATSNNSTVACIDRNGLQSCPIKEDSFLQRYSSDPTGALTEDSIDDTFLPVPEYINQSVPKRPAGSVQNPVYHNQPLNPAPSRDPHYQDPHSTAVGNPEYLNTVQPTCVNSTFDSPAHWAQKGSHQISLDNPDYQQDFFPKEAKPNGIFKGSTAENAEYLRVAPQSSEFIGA
EGFR del19/C797S, sequence (P00533 with tags, fused parts or gaps DEL746-750/C797S): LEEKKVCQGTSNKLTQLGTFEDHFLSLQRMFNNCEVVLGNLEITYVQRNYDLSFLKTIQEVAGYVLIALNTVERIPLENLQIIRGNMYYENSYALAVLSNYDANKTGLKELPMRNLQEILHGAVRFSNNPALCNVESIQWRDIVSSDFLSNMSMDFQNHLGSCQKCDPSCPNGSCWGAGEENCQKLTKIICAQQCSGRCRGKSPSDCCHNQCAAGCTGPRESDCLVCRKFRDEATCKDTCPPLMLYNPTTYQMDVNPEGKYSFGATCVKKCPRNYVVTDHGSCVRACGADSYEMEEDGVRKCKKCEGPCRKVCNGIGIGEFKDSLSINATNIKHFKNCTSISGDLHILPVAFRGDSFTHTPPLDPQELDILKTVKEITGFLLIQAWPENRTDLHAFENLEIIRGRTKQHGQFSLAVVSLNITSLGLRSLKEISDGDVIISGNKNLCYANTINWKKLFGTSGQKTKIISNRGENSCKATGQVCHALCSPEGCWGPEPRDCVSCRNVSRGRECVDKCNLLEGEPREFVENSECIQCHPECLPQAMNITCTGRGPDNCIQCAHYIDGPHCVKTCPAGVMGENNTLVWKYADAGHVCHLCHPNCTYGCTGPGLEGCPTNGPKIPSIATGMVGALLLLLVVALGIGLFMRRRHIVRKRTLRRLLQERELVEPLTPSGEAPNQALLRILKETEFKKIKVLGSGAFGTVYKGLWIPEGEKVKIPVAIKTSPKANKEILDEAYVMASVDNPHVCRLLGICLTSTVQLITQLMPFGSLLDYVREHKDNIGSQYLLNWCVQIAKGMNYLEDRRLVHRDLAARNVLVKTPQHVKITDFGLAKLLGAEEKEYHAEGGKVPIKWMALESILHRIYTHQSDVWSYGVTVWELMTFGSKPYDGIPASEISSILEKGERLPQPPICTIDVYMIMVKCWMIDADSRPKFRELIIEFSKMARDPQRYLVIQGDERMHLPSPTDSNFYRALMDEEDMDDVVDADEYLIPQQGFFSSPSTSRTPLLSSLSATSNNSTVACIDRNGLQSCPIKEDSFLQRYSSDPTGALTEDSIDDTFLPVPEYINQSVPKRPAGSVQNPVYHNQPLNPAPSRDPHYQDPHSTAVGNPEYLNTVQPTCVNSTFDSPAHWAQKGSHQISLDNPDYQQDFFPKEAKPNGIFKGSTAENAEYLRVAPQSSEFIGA
EGFR del19/T790M/C797S, sequence (P00533 with tags, fused parts or gaps DEL746-750/T790M/C797S): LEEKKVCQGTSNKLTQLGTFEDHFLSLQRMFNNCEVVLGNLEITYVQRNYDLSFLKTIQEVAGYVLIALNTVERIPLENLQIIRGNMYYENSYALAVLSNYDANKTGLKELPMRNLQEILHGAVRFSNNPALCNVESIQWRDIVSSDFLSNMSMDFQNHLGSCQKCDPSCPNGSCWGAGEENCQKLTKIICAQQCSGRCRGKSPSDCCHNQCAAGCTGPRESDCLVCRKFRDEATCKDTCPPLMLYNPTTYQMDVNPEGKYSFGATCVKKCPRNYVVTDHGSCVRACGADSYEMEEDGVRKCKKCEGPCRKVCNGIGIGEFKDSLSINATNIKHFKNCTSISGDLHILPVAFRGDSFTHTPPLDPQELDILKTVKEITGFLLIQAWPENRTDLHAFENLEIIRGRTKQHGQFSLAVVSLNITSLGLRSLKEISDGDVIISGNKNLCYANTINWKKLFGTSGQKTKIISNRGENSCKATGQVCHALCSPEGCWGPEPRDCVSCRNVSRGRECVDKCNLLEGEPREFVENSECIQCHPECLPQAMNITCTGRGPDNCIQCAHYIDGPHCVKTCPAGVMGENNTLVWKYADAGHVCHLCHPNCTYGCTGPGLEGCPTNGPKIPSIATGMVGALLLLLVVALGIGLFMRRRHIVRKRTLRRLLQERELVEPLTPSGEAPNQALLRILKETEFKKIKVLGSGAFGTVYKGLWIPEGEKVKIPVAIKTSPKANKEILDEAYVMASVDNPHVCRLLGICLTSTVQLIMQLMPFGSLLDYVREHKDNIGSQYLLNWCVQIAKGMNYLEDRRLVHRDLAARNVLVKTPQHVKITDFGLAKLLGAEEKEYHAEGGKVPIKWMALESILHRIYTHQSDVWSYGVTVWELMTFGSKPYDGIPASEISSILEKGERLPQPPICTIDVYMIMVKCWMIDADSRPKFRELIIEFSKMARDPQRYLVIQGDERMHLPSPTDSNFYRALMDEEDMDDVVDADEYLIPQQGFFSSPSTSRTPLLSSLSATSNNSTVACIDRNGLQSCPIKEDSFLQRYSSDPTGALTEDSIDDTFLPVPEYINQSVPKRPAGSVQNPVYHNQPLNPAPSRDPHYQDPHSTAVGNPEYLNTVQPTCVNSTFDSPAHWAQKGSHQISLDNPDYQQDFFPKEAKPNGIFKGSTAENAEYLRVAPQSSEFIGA

Row | SMILES | IC50 (EGFR del19/T790M/C797S) | IC50 (EGFR L858R/T790M/C797S) | IC50 (EGFR del19/C797S) | IC50 (EGFR L858R/C797S) | IC50 (EGFR wildtype (WT))
1 | Cc1ccn(-c2cnc(Nc3ccnc(-c4cnn(S(=O)(=O)C5CC5)c4)n3)cc2N[C@H]2CC[C@@](C)(O)CC2)n1 [Example 168, (1s,4s)-4-((2-((2-(1-(Cyclopropylsulfonyl)-1H-pyrazol-4-yl)pyrimidin-4-yl)amino)-5-(3-methyl-1H-pyrazol-1-yl)pyridin-4-yl)amino)-1-methylcyclohexan-1-ol] | 0.2 nM | 0.1 nM | 6.5 nM | 3 nM | 26.9 nM
2 | COc1cc(-c2nccc(Nc3cc(N[C@H]4CC[C@@](C)(O)CC4)c(-c4ccn(C(F)F)n4)cn3)n2)ccn1 [Example 169, (1s,4s)-4-((5-(1-(Difluoromethyl)-1H-pyrazol-3-yl)-2-((2-(2-methoxypyridin-4-yl)pyrimidin-4-yl)amino)pyridin-4-yl)amino)-1-methylcyclohexan-1-ol] | 20.1 nM | 15.5 nM | 110 nM | 43.4 nM | 325 nM
3 | C[C@]1(O)CC[C@@H](Nc2cc(Nc3ccnc(-c4ccc(F)nc4F)n3)ncc2-c2ccn(C(F)F)n2)CC1 [Example 170, (1s,4s)-4-((5-(1-(Difluoromethyl)-1H-pyrazol-3-yl)-2-((2-(2,6-difluoropyridin-3-yl)pyrimidin-4-yl)amino)pyridin-4-yl)amino)-1-methylcyclohexan-1-ol] | 49.7 nM | 16.9 nM | 1340 nM | 814 nM | 1980 nM
4 | C[C@]1(O)CC[C@@H](Nc2cc(Nc3ccnc(-c4cccnc4F)n3)ncc2-c2ccn(C(F)F)n2)CC1 [Example 171, (1s,4s)-4-((5-(1-(Difluoromethyl)-1H-pyrazol-3-yl)-2-((2-(2-fluoropyridin-3-yl)pyrimidin-4-yl)amino)pyridin-4-yl)amino)-1-methylcyclohexan-1-ol] | 2.6 nM | 2.2 nM | 96.6 nM | 86.4 nM | 523 nM
5 | CC(C)(CO)Cn1cc(-c2nccc(Nc3cc(N[C@H]4CC[C@@](C)(O)CC4)c(-c4ccn(C(F)F)n4)cn3)n2)cn1 [Example 173, (1s,4s)-4-((5-(1-(Difluoromethyl)-1H-pyrazol-3-yl)-2-((2-(1-(3-hydroxy-2,2-dimethylpropyl)-1H-pyrazol-4-yl)pyrimidin-4-yl)amino)pyridin-4-yl)amino)-1-methylcyclohexan-1-ol] | 3.9 nM | 0.9 nM | 333 nM | 107 nM | 16.7 nM
6 | Cn1ccc(-c2cnc(Nc3ccnc(-c4cnn(S(=O)(=O)C5CC5)c4)n3)cc2N[C@H]2CC[C@@H](F)CC2)n1 [Example 174, N^2-(2-(1-(Cyclopropylsulfonyl)-1H-pyrazol-4-yl)pyrimidin-4-yl)-N^4-((1s,4s)-4-fluorocyclohexyl)-5-(1-methyl-1H-pyrazol-3-yl)pyridine-2,4-diamine] | 1.4 nM | 0.8 nM | 2.4 nM | 0.5 nM | 13.2 nM
7 | Cn1nc(-c2cnc(Nc3ccnc(-c4cnn(S(=O)(=O)C5CC5)c4)n3)cc2N[C@H]2CC[C@@H](F)CC2)cc1C(F)(F)F [Example 175, N^2-(2-(1-(Cyclopropylsulfonyl)-1H-pyrazol-4-yl)pyrimidin-4-yl)-N^4-((1s,4s)-4-fluorocyclohexyl)-5-(1-methyl-5-(trifluoromethyl)-1H-pyrazol-3-yl)pyridine-2,4-diamine] | 25.3 nM | 14.5 nM | 41.8 nM | 8 nM | 91.9 nM
8 | C[C@]1(O)CC[C@@H](Nc2cc(Nc3ccnc(-c4cnc5c(c4)CCCO5)n3)ncc2-c2ccn(C(F)F)n2)CC1 [Example 176, (1s,4s)-4-((5-(1-(Difluoromethyl)-1H-pyrazol-3-yl)-2-((2-(3,4-dihydro-2H-pyrano[2,3-b]pyridin-6-yl)pyrimidin-4-yl)amino)pyridin-4-yl)amino)-1-methylcyclohexan-1-ol] | 0.3 nM | 0.04 nM | 264 nM | 10.4 nM | 752 nM
9 | C[C@]1(O)CC[C@@H](Nc2cc(Nc3ccnc(-c4cnn(CC(F)F)c4)n3)ncc2-n2ccc(C(F)F)n2)CC1 [Example 177, (1s,4s)-4-((2-((2-(1-(2,2-Difluoroethyl)-1H-pyrazol-4-yl)pyrimidin-4-yl)amino)-5-(3-(difluoromethyl)-1H-pyrazol-1-yl)pyridin-4-yl)amino)-1-methylcyclohexan-1-ol] | 0.8 nM | 0.8 nM | 1320 nM | 36.6 nM | 4620 nM
10 | COc1ncc(-c2nccc(Nc3cc(N[C@H]4CC[C@@](C)(O)CC4)c(-c4ccn(C(F)F)n4)cn3)n2)cc1F [Example 178, (1s,4s)-4-((5-(1-(Difluoromethyl)-1H-pyrazol-3-yl)-2-((2-(5-fluoro-6-methoxypyridin-3-yl)pyrimidin-4-yl)amino)pyridin-4-yl)amino)-1-methylcyclohexan-1-ol] | 46.2 nM | 16.8 nM | 102 nM | 3 nM | 2110 nM

Continued, values first:

Row | IC50 (EGFR del19/T790M/C797S) | IC50 (EGFR L858R/T790M/C797S) | IC50 (EGFR del19/C797S) | IC50 (EGFR L858R/C797S) | IC50 (EGFR wildtype (WT)) | SMILES
11 | 3.1 nM | 2.1 nM | 168 nM | 7.4 nM | 264 nM | O=S(=O)(C1CC1)n1cc(-c2nccc(Nc3cc(NC4CCC(F)(F)C4)c(-c4ccn(C(F)F)n4)cn3)n2)cn1 (stereo not drawn) [Example 179, N^2-(2-(1-(Cyclopropylsulfonyl)-1H-pyrazol-4-yl)pyrimidin-4-yl)-N^4-(3,3-difluorocyclopentyl)-5-(1-(difluoromethyl)-1H-pyrazol-3-yl)pyridine-2,4-diamine]
12 | 1.3 nM | 1.1 nM | 410 nM | 23.2 nM | 418 nM | FC(F)Cn1cc(-c2nccc(Nc3cc(NC4CCCC(F)C4)c(-c4ccn(C(F)F)n4)cn3)n2)cn1 (stereo not drawn) [Example 180, N^2-(2-(1-(2,2-Difluoroethyl)-1H-pyrazol-4-yl)pyrimidin-4-yl)-5-(1-(difluoromethyl)-1H-pyrazol-3-yl)-N^4-(3-fluorocyclohexyl)pyridine-2,4-diamine]
13 | 2.1 nM | 2.1 nM | 6.7 nM | 13.2 nM | 44.6 nM | O=S(=O)(C1CC1)n1cc(-c2nccc(Nc3cc(NC4CCCC(F)C4)c(-c4ccn(C(F)F)n4)cn3)n2)cn1 (stereo not drawn) [Example 181, N^2-(2-(1-(Cyclopropylsulfonyl)-1H-pyrazol-4-yl)pyrimidin-4-yl)-5-(1-(difluoromethyl)-1H-pyrazol-3-yl)-N^4-(3-fluorocyclohexyl)pyridine-2,4-diamine]
14 | 0.8 nM | 0.8 nM | 26.8 nM | 116 nM | 781 nM | Cc1nn(-c2cnc(Nc3ccnc(-c4cnn(S(=O)(=O)C5CC5)c4)n3)cc2N[C@H]2CC[C@@](C)(O)CC2)cc1C(F)(F)F [Example 182, (1s,4s)-4-((2-((2-(1-(Cyclopropylsulfonyl)-1H-pyrazol-4-yl)pyrimidin-4-yl)amino)-5-(3-methyl-4-(trifluoromethyl)-1H-pyrazol-1-yl)pyridin-4-yl)amino)-1-methylcyclohexan-1-ol]
15 | 0.8 nM | 0.6 nM | 42.8 nM | 37.1 nM | 624 nM | CS(=O)(=O)c1ccn(-c2cnc(Nc3ccnc(-c4cnn(S(=O)(=O)C5CC5)c4)n3)cc2N[C@H]2CC[C@@](C)(O)CC2)n1 [Example 183, (1s,4s)-4-((2-((2-(1-(Cyclopropylsulfonyl)-1H-pyrazol-4-yl)pyrimidin-4-yl)amino)-5-(3-(methylsulfonyl)-1H-pyrazol-1-yl)pyridin-4-yl)amino)-1-methylcyclohexan-1-ol]
16 | 0.1 nM | 0.05 nM | 4.8 nM | 2 nM | 32 nM | Cc1cnn(-c2cnc(Nc3ccnc(-c4cnn(S(=O)(=O)C5CC5)c4)n3)cc2N[C@H]2CC[C@@](C)(O)CC2)c1 [Example 184, (1s,4s)-4-((2-((2-(1-(Cyclopropylsulfonyl)-1H-pyrazol-4-yl)pyrimidin-4-yl)amino)-5-(4-methyl-1H-pyrazol-1-yl)pyridin-4-yl)amino)-1-methylcyclohexan-1-ol]
17 | 11 nM | 3.8 nM | 51.5 nM | 59.5 nM | 87.1 nM | O=S(=O)(C1CC1)n1cc(-c2nccc(Nc3cc(N[C@H]4CC[C@@H](CC(F)F)CC4)c(-c4ccn(C(F)F)n4)cn3)n2)cn1 [Example 185, N^2-(2-(1-(Cyclopropylsulfonyl)-1H-pyrazol-4-yl)pyrimidin-4-yl)-N^4-((1s,4s)-4-(2,2-difluoroethyl)cyclohexyl)-5-(1-(difluoromethyl)-1H-pyrazol-3-yl)pyridine-2,4-diamine]
18 | 1.3 nM | 0.4 nM | 32.9 nM | 30.4 nM | 166 nM | Cc1cn(-c2cnc(Nc3ccnc(-c4cnn(S(=O)(=O)C5CC5)c4)n3)cc2N[C@H]2CC[C@@](C)(O)CC2)nc1C(F)(F)F [Example 186, (1s,4s)-4-((2-((2-(1-(Cyclopropylsulfonyl)-1H-pyrazol-4-yl)pyrimidin-4-yl)amino)-5-(4-methyl-3-(trifluoromethyl)-1H-pyrazol-1-yl)pyridin-4-yl)amino)-1-methylcyclohexan-1-ol]
